Measurements as given in a melting point compilation (Tetko et al.; mined from patent text by program, amines drawn as free bases though some values may be those of a salt).

| Structure (SMILES) | melting point |
| --- | --- |
| CCC(CC)Nc1cc(C)nc(Oc2c(C)cc(Cl)cc2C)c1NC(C)=O | 161 to 164 °C |
| Cc1cc2c(O)nc(O)nc2s1 | > 300 °C |
| Cc1cccc(NC(=O)NCC(=O)N(CC(=O)N2CCC3(CC2)OCCO3)c2ccccc2)c1 | 130 °C |
| CC(=O)SCCS(=O)(=O)N1CCC[C@H]1C(=O)OC(C)(C)C | 46 to 50 °C |
| O=C(O)CCCC1C(=O)Nc2ccccc21 (stereo not drawn) | 79 to 80 °C |
| CC=CCN(C)c1ncnc2c1ncn2C1OC(CO)C(O)C1O (stereo not drawn) | 160 to 162 °C |
| CC(C)NC(=O)c1ccc(CCN2CC=C(c3c[nH]c(-c4ccc(F)cc4)c3-c3ccncc3)CC2)cc1 | 178 to 180 °C |
| CC(=O)Oc1ccc([C@@H]2O[C@H]2CO)cc1 | 59 to 61 °C |
| O=C(Nc1ccc(N2CC3CC3C2)nc1)c1cc2cc(F)ccc2n1Cc1cccc(F)c1 (stereo not drawn) | 193 to 195 °C |
| CS(=O)(=O)c1ccc(-c2nn3ccoc3c2-c2ccc(F)cc2)cc1 | 67 to 70 °C |
| Cc1cc(CO)oc1CN(C)C | 104 to 106 °C |
| C=CCc1cn(C2OC(CO)C(O)C2O)c(=O)nc1N (stereo not drawn) | 176 °C |
| O=C1NC(=O)c2cc(C(c3ccc4c(c3)C(=O)NC4=O)(C(F)(F)F)C(F)(F)F)ccc21 | 322 °C |
| COc1cc(Nc2ncnc3cc4cc(OCc5ccccc5)c(OC)cc4cc23)c(Cl)cc1Cl | 275 to 280 °C |
| CC(=O)N1CCc2ccc(C(=O)CCCCl)cc2CC1 | 103 to 106 °C |
| Cc1nc(-n2cnn(Cc3ccc(F)cc3)c2=O)sc1C(=O)NCc1cn(C)cn1 | 225 to 226 °C |
| C[Si](C)(C)OCCOC(=O)c1ccccc1S(N)(=O)=O | 72 to 76 °C |
| Cc1cc(OC(F)F)nc(S(C)(=O)=O)n1 | 86 to 88 °C |
| COc1cc(CCCC2OCCO2)ccc1OCc1nc(-c2ccccc2)oc1C | 74 to 75 °C |
| Nc1ncnc2c1ncn2OC[C@@H](CO)OCP(=O)(O)O | 200 to 205 °C |
| N#Cc1ccc(Cn2cncc2CN2CCC3(CC2)C(=O)Nc2ccccc23)cc1 | 245 to 247 °C |
| CCCCN=C(CS(C)=O)c1ccccc1O (stereo not drawn) | 128 to 129 °C |
| CC#CCOc1ccc(S(=O)(=O)C(CCCCCC#N)C(=O)NO)cc1 (stereo not drawn) | 120 °C |
| CC(C)Nc1nc2c(F)c(Cl)c(Cl)cc2[nH]1 | 212 to 215 °C |

| Structure (SMILES) | melting point |
| --- | --- |
| CCCN/C(C)=C(/C#N)C(N)=S | 149 to 151 °C |
| COc1nc(C)cc2nc(S(=O)(=O)Nc3nn(C)c4ccccc34)nn12 | 181 to 183 °C |
| Cc1c(C)c2c(c(C)c1N)CC(C)(CN1C(=O)c3ccccc3C1=O)O2 (stereo not drawn) | 147 to 150 °C |
| CCOC(=O)C(C)=NNc1ccc(C(O)(C(F)(F)F)C(F)(F)F)cc1 | 167 to 168 °C |
| OC(CCl)COc1cccc2sncc12 (stereo not drawn) | 104 to 106 °C |
| CCc1nc2c(N)nc3cccnc3c2n1CC1(O)CCOC1 (stereo not drawn) | 234 to 236 °C |
| c1ccc(COc2cccc(Nc3nnc(Cc4ccncc4)c4ccccc34)c2)cc1 | 142 to 143 °C |
| Cc1c(CN2CCc3c(c4cccc(F)c4n3C)C2=O)ncn1C | 174 to 175 °C |
| CN(C)C=CC(=O)c1cccnc1 | 66 to 67 °C |
| C=C[C@H]1OC(C)(C)O[C@@H](CC(=O)OCc2ccccc2)[C@H]1NC(=O)OCc1ccccc1 (relative stereo) | 39 to 40.8 °C |
| O=C1Nc2ccccc2C1c1nc(Cl)nc2nn(C3CCCC3)cc12 (stereo not drawn) | 270 to 273 °C |
| O=C(O)[C@@H]1C[C@H]2C[C@@H](C=Cc3nsnc3O)CC[C@H]2CN1 (racemic) | 239 to 242 °C |
| COC(=O)C1CSC(=O)C1 (stereo not drawn) | 33 to 35 °C |
| CCC(CC)(NC(=O)CCn1cnc(CC#N)c1)c1ccccc1 | 121 to 122 °C |
| C#CCN(c1ccc(C(=O)OC(C)(C)C)cc1)C1CCc2cc3nc(COC)[nH]c(=O)c3cc21 (racemic) | 191 to 192 °C |
| N#CC1=C(c2cccs2)Nc2n[nH]cc2C1c1cccc2nsnc12 (stereo not drawn) | 254 °C |
| COc1cc(N)ccc1C=NNC(=N)NN=Cc1ccc(N)cc1OC | 220 to 230 °C |
| O=C1NC(=O)C(Cc2ccc(OCCn3cc(C(c4ccccc4)(c4ccccc4)c4ccccc4)c4ccccc43)cc2)S1 (stereo not drawn) | 66.6 to 70 °C |
| CCN(CC)C(C#N)c1ccc(OCc2ccccc2)cc1 (stereo not drawn) | 75 to 76 °C |
| CC(C)NCC(O)COc1ccc(CCOCC2CCC2)cc1 (stereo not drawn) | 62 to 63 °C |
| N#Cc1cc(C#N)cc(C=O)c1 | 203 to 204 °C |
| CNS(=O)(=O)N(C)C(=O)CCCl | 96 °C |
| CC1C=CC(Oc2ccc(C(=O)O)o2)=C2N=C3CCCCC3=C21 (stereo not drawn) | 150 to 152 °C |
| CSc1nnc(C(F)F)s1 | 23 °C |

| Structure (SMILES) | melting point |
| --- | --- |
| Cn1cnc2c(cnn2-c2ncc(C(F)(F)F)cc2Cl)c1=O | 253 °C |
| NC(=O)C1C2C=CC(C2)C1Nc1c(Cl)cnc2[nH]c(-c3ccc4c(c3)CCC3(CCNCC3)O4)nc12 (stereo not drawn) | > 250 °C |
| COc1ccc2c3c(c4cc(OC)c(OC)cc4c2c1)C[C@H](CO)N(C(=O)OC(C)(C)C)C3 | 105 to 107 °C |
| CNC(=C[N+](=O)[O-])NCCSCC1(OC)C=CC=NC1 (stereo not drawn) | 146 to 147 °C |
| Cn1ncc(C=O)c1-c1ccc([N+](=O)[O-])o1 | 130 °C |
| Cc1cc(Oc2ccc(C(F)(F)F)cc2Cl)cc(C)c1N | 104 to 105 °C |
| N#Cc1cnn(-c2ccc(F)cc2F)c1Cl | 120 to 122 °C |
| CCCOC1=CC(=O)C(C(=O)OCC)C(c2ccc(C)cc2)C1 (stereo not drawn) | 106 to 107 °C |
| Cc1cc2c(cn1)c(C#N)c(-c1ncc(S(=O)(=O)NC(C)C)cn1)n2C1CCC1 | 242 to 243 °C |
| COC(=O)CCn1c(=O)n(CCN2CCN(c3cccc(Cl)c3)CC2)c(=O)c2cscc21 | 150 °C |
| COC(=O)C[C@H](O)CC(=O)C=Cc1c(-c2ccc(F)cc2)c(-c2ccc(F)cc2)c(C(=O)NCc2cccc(OC)c2)n1C(C)C | 104 to 116 °C |
| N#CSc1nc(C(F)(F)F)nc2ccccc12 | 134 to 136 °C |
| Cc1cc([N+](=O)[O-])cc(C(=O)Nc2nnn[nH]2)n1 | > 300 °C |
| COc1cc2c(cc1O)CN(C(C)=O)CC2 | 142 to 144 °C |
| COc1ccc(C(=Cc2ccncc2)c2ccncc2)cc1OC1CCCC1 | 136 to 138 °C |
| Cc1nccn1CC(C)C(=O)c1cn(C)c2ccccc12 (stereo not drawn) | 205 to 207 °C |
| COc1cc2c3c(c1)nc(SCc1ccc4ccccc4n1)n3CCC2 | 89 to 91 °C |
| O=c1ccoc(C(O)c2cccnc2)c1O (stereo not drawn) | 176 to 180 °C |
| Nc1c(S(=O)(=O)C(F)(F)F)c(-c2ncon2)nn1-c1c(Cl)cc(C(F)(F)F)cc1Cl | 205 to 208 °C |
| COC(=O)c1ccc(CN2CCOc3ccc([N+](=O)[O-])cc32)c(OC)c1 | 130 to 132 °C |
| COc1cccc2sc3cc(=O)ccc-3nc12 | 206 to 207 °C |
| CC(=O)N1CCn2c3c(c4cccc(c42)C1)CCCCCC3 | 41 to 44 °C |

Further lines, results first:

| melting point | Structure (SMILES) |
| --- | --- |
| 76 °C | CCOC(=O)C(C)(C)Oc1ccc(CCNC(=O)C=Cc2ccccc2Cl)cc1 |
| 180 °C | CC(C)(Oc1ccc(C(=O)NCc2ccc(Cl)cc2)cc1)C(=O)O |
| 102 to 104 °C | O=C(OCC(O)CO)c1ccc(C=Cc2csc3ccccc23)s1 (stereo not drawn) |
| 233 to 236 °C | CSC1=NC(=O)/C(=C/c2ccccc2Nc2c(Cl)ccc(C)c2Cl)S1 |
| 158 °C | CCOC(=O)C1=C(N)NC(N)=C(C(=O)OCC)C1c1ccccc1C |
| 94 °C | O=C(c1ccccc1OCCCCl)c1cccc2[nH]ccc12 |
| 80 to 85 °C | CC(=O)O[C@@H](C)C(=O)Nc1c(C(=O)c2ccccc2)[nH]c2cc(Cl)ccc12 |
| 118 to 120 °C | O=C(CNC(=O)c1ccc([N+](=O)[O-])c(F)c1)OCc1ccccc1 |
| 102 to 104 °C | O=C1C[C@H](O)C[C@@H](/C=C/c2cnc3ccccc3c2-c2cccs2)O1 |
| 117 to 118 °C | CC(=O)SC(CC(=O)c1ccc(Oc2ccc(Br)cc2)cc1)C(=O)O (stereo not drawn) |
| 94 to 95 °C | CC(C)CC(=O)N[C@@H](Cc1ccccc1)C(=O)CSCc1ccco1 |
| 217 to 220 °C | Cc1cc2c(-c3ccccc3)c(CC(=O)O)n(C)c(=O)c2cc1C |
| 111 to 114 °C | CN1CCC(c2c[nH]c3ccc(NC(=O)c4ccccc4)nc23)CC1 |
| 226 °C | CC(=O)OC1CSC(Oc2ccc(-c3ccnc(Cl)c3)nc2)C(OC(C)=O)C1OC(C)=O (stereo not drawn) |
| 204 to 206 °C | NNc1ccnc2c(NC(=O)c3c(Cl)cccc3Cl)cccc12 |
| 187 to 192 °C | O=C1NCN2c3ccccc3Sc3cccc1c32 |
| 120 to 123 °C | CC(C)c1cccc(C(C)C)c1NC(=O)Cc1ccccc1NCCc1ccccc1 |

| melting point | Structure (SMILES) |
| --- | --- |
| 281 to 282 °C | Cc1noc2nc(-c3ccccc3)cc(O)c12 |
| 113 to 116 °C | CS(=O)(=O)c1nccc(Oc2ccccc2)n1 |
| 199 to 200 °C | CC(C)n1nc(-c2c(-c3ccccc3)nn3ccc(OCC(=O)NC4CC4)cc23)ccc1=O |
| 72 to 75 °C | CN(Cc1cc2c(=O)c(C(=O)NCc3ccc(Cl)cc3)cn(C)c2o1)CC(O)c1ccc(O)cc1 (stereo not drawn) |
| 160 °C | CC(C)(C)OC(=O)Nc1ccc(F)c(F)c1C(=O)O |
| 112 to 113 °C | COC(=O)/C(N)=C/C(=O)/C=C/c1ccc(Cl)cc1 |
| 130 °C | COc1c(NOCc2ccccc2)ccnc1C |
| 136 to 138 °C | COc1ccc2c(c1)c(CC(=O)O)c(C)n2C(=O)c1ccc(OC(F)(F)F)cc1 |
| 157 to 159 °C | COc1ccc2c(c1OCc1ccccc1)CC(C(=O)O)N(C(=O)C(c1ccccc1)c1ccccc1)C2 (racemic) |
| 220 to 222 °C | CN(C)c1ccc(-c2ccnc3c(C(=O)c4cccs4)cnn23)cc1NC(=O)c1ccccc1Cl |
| 137 to 138 °C | COc1ccc(C(=O)c2cc3cccc(Br)c3o2)cc1OC |
| 123 to 124 °C | O=C(CCSC(=O)c1ccccc1)N[C@@H](Cc1ccccc1)C(=O)O |
| 214 to 216 °C | CC1(C)OC(=O)Nc2ccc(-c3ccccc3-c3ncsn3)cc21 |
| 204 to 206 °C | O=c1c2cc(F)c(F)cc2n(-c2ccccc2F)c(=O)n1OCc1ccccc1 |
| 65.2 to 66.7 °C | CCCCCCC(C)Oc1ccc(-c2ccc(O)cc2)cc1F (stereo not drawn) |
| 110 to 112 °C | CCOC(=O)c1nn(-c2ccccc2)c2c1Cc1ccccc1-2 |
